# Read-outs that look alike come from different tables or passages of the source.
# Assays:
# [1] = molecular target: T1, β1,3-N-acetylglucosaminyl transferase (G4) (Homo sapiens, UniProt Q9Y2A9, R328H); assay: Substrate specificity of G4 with unlabeled oligosaccharides (HPAE/PAD); assay type: biochemical; settings: unlabeled substrate, 37° C., 16 hours, activity on LNnT defined as 100%
# T1 construct: made in house; host or cells: Sf21 insect cells infected with recombinant baculovirus from pVL1393-F2G4
# T1 sequence (Q9Y2A9 38-372 R328H): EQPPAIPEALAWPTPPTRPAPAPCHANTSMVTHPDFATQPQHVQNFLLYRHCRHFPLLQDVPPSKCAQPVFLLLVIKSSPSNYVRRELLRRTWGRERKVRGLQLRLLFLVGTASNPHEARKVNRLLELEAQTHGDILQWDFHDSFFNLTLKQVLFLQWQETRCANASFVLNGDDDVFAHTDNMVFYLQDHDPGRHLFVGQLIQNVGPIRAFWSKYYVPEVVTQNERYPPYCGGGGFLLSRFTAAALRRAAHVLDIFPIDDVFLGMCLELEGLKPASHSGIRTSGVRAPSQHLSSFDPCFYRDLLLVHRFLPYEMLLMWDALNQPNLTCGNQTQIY
# Procedure: (§1) The reaction using the glycosyltransferase was carried out as follows. The reaction was carried out at 37° C. for 16 hours in 40 μl of an assay solution [50 mmol/l MOPS (pH 7.5), 5 mmol/l UDP-GlcNAc (SIGMA), 5 mmol/l MnCl2, […] and 10 μl of the above eluate]. Next, the reaction solution was treated at 100° C. for 5 minutes and then centrifuged at 10,000×g for 20 minutes to obtain the supernatant, and a portion thereof was analyzed using HPAE/PAD (High Performance Anion Pulsed Amperometoric Detection; manufactured by DIONEX). The specific method was carried out in the usual way [Anal. Biochem., 189, 151 (1990), J. Biol. Chem., 273, 433 (1998)].
# (§2) As substrates, the following unlabeled oligosaccharides were used: lactose (Galβ1-4Glc), N-acetyllactosamine (Galβ1-4GlcNAc, hereinafter referred to as “LacNAc” in some cases), LNnT, LNT and lacto-N-neohexaose (Galβ1-4GlcNACβ1-3Galβ1-4GlcNAcβ1-3Galβ1-4Glc, hereinafter referred to as “LNnH”).
# (§3) For each substrate, the reaction was carried using the assay solution with or without UDP-GlcNAc (sugar donor), and then HPLC was carried out and peaks appeared only in the assay solution containing UDP-GlcNAc were defined as products.
# (§4) In identifying the product, coincidence of its elution time with that of a standard sugar chain was used as the index. As the standard sugar chains, GlcNAcβ1-3Galβ1-4Glc, GlcNAcβ1-3Galβ1-4GlcNAc and GlcNAcβ1-3Galβ1-4GlcNAcβ1-3Galβ1-4Glc were used.
# [2] = molecular target: T2, β1,3-N-acetylglucosaminyl transferase (G3) (Homo sapiens, UniProt Q9NY97); assay: Substrate specificity of G3 with unlabeled oligosaccharides; assay type: biochemical; settings: unlabeled substrate, 37° C., 2 hours, activity for LNnT defined as 100%
# T2 construct: made in house; host or cells: Sf21 insect cells infected with recombinant baculovirus from pVL1393-F2G3
# T2 sequence (Q9NY97 31-397): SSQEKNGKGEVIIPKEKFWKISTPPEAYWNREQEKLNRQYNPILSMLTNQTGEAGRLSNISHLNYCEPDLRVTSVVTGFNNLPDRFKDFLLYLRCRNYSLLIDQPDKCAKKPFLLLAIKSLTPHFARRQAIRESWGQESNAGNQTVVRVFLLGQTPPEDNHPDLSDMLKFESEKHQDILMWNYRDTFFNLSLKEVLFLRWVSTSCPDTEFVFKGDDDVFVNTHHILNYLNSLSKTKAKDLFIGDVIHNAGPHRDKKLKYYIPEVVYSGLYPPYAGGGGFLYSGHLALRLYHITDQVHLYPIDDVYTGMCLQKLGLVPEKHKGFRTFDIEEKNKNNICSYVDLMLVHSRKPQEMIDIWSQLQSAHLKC
# Procedure: as §1, §2, §3, §4
# Substrate specificity of the FLAG peptide-fused G3 polypeptide was examined by the method shown in Example 11(2). The enzyme reaction was carried out at 37° C. for 2 hours.
# [3] = molecular target: T3, β1,3-N-acetylglucosaminyl transferase (G7) (Homo sapiens, UniProt Q9C0J1); assay: Substrate specificity of G7 with unlabeled oligosaccharides; assay type: biochemical; settings: unlabeled substrate, 37° C., 15.5 hours, activity for LNnT defined as 100%
# T3 construct: made in house; host or cells: Sf21 insect cells infected with recombinant baculovirus from pVL1393-F2G7
# T3 sequence (Q9C0J1 56-378): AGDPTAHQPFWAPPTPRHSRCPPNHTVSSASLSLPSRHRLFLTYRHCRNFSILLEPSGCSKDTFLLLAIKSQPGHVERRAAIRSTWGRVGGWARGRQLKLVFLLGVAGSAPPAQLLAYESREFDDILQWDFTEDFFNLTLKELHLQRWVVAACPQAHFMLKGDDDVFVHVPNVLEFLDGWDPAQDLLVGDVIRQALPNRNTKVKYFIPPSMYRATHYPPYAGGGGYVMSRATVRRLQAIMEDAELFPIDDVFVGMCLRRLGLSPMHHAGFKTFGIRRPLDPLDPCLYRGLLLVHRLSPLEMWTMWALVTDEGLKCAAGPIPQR
# Procedure: as §1, §2, §3, §4
# Substrate specificity of the FLAG peptide-fused G7 polypeptide was examined using the method shown in Example 11(2). The enzyme reaction was carried out at 37° C. for 15.5 hours.
# β3GnT = molecular target: T4, β3GnT (Homo sapiens, UniProt Q9NY97); settings: reported values, Proc. Natl. Acad. Sci. USA, 96, 406 (1999), cited from earlier work
# T4 sequence (Q9NY97 1-397): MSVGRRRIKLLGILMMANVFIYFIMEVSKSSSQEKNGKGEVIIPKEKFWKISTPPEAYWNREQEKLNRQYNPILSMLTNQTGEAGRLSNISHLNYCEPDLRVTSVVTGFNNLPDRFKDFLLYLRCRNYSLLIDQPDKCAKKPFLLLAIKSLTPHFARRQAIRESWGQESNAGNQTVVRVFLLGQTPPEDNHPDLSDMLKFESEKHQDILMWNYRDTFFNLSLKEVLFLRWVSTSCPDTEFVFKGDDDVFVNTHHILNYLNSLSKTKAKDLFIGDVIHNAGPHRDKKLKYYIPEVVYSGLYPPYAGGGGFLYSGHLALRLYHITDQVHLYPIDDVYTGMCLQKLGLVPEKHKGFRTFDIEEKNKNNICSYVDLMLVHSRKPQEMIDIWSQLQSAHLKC
# [4] = molecular target: T1, β1,3-N-acetylglucosaminyl transferase (G4); assay: Substrate specificity of G4 with pyridylaminated oligosaccharides; assay type: biochemical; settings: pyridylaminated substrate 50 μmol/l, 37° C., 14.5 hours, activity on LNnT defined as 100%
# Procedure: Examination on the substrate specificity of a β1,3-N-acetylglucosaminyl transferase (G4) was carried out by using the FLAG peptide-fused G4 polypeptide produced as a secreted form in Example 10.
# (§5) The method shown in Example 8 was used as the activity measuring method. Specifically, after the reaction at 37° C. for 14.5 hours in 30 μl of an assay solution [200 mmol/l of MOPS (pH 7.5), 20 mmol/l of UDP-GlcNAc (SIGMA), 20 mmol/l of MnCl2, 50 μmol/l of pyridylaminated sugar chain substrate and 15 μl of the above eluate], products were detected by HPLC. As substrates, LNnT, lacto-N-tetraose (Galβ1-3GlcNAcβ1-3Galβ1-4Glc, hereinafter referred to as “LNT”), lacto-N-fucopentaose II (Galβ1-3(Fucα1-4)GlcNAcβ1-3Galβ1-4Glc, hereinafter referred to as “LNFP-II”), lacto-N-fucopentaose III (Galβ1-4(Fucα1-3)GlcNAcβ1-3Galβ1-4Glc, hereinafter referred to as “LNFP-III”), lacto-N-fucopentaose V (Galβ1-3GlcNAcβ1-3Galβ1-4(Fucα1-3)Glc, hereinafter referred to as “LNFP-V”) and lacto-N-difucohexaose II (Galβ1-3(Fucα1-4)GlcNAcβ1-3Galβ1-4(Fucα1-3)Glc, hereinafter referred to as “LNDFH-II”) (all manufactured by Oxford Glycosystems) were used after fluorescently labeling them with aminopyridine. Fluorescence labeling of these substrates were carried out in accordance with the usual method [Agric. Biol. Chem., 54, 2169 (1990)].
# as §3
# (§6) The assay solution after completion of the reaction was treated at 100° C. for 5 minutes and then centrifuged at 10,000×g for 5 minutes, and a portion (5 μl) of the thus obtained supernatant was applied to HPLC.
# (§7) The HPLC was carried out by using TSK-gel ODS-80Ts column (4.6×300 mm; Tosoh); 0.02 mol/l ammonium acetate buffer (pH 4.0) was used as the eluate at an elution temperature of 50° C. and at a flow rate of 0.5 ml/min.
# (§8) Products were detected by using a fluorescence spectrum photometer FP-920 (JASCO Corporation) (excitation wavelength 320 nm, radiation wavelength 400 nm).
# [5] = molecular target: T2, β1,3-N-acetylglucosaminyl transferase (G3); assay: Substrate specificity of G3 with pyridylaminated oligosaccharides; assay type: biochemical; settings: pyridylaminated substrate, 37° C., 2 hours, activity on LNnT defined as 100%
# Procedure: as §5, §3, §6, §7, §8
# Substrate specificity of a β1,3-N-acetylglucosaminyl transferase (G3) was examined using the FLAG peptide-fused G3 polypeptide purified in Example 14.
# Substrate specificity of the FLAG peptide-fused G3 polypeptide was examined by the method shown in Example 11(1). The reaction was carried out at 37° C. for 2 hours.
# [6] = molecular target: T3, β1,3-N-acetylglucosaminyl transferase (G7); assay: Substrate specificity of G7 with pyridylaminated oligosaccharides; assay type: biochemical; settings: pyridylaminated substrate, 37° C., 16 hours, activity for LNnT defined as 100%
# Procedure: as §5, §3, §6, §7, §8
# Examination of the substrate specificity of a β1,3-N-acetylglucosaminyl transferase (G7) was carried out using the FLAG peptide-fused G7 polypeptide purified in Example 17.
# Substrate specificity of the FLAG peptide-fused G7 polypeptide was examined by the method shown in Example 11(1). The reaction was carried out at 37° C. for 16 hours.
Molecule,Relative activity (%) [1],Relative activity (%) G3 [2],Relative activity (%) G7 [3],Relative activity (%) β3GnT (β3GnT; Table 4),Relative activity (%) β3GnT (β3GnT; Table 6),Relative activity (%) [4],Relative activity (%) [5],Relative activity (%) [6]
"CC(=O)N[C@H]1C(O)O[C@H](CO)[C@@H](O[C@@H]2O[C@H](CO)[C@H](O)[C@H](O)[C@H]2O)[C@@H]1O (stereo partly shown) [LacNAc, N-acetyllactosamine]",0%,21%,8.5%,95.5%,95.5%,–,–,–
"OC[C@H]1O[C@@H](O[C@H]2[C@H](O)[C@@H](O)C(O)O[C@@H]2CO)[C@H](O)[C@@H](O)[C@H]1O (stereo partly shown) [Lactose, lactose]",235%,128%,32.6%,67.1%,67.1%,–,–,–
"CC(=O)N[C@H]1[C@H](O[C@H]2[C@@H](O)[C@@H](CO)O[C@@H](O[C@@H]([C@H](O[C@@H]3O[C@@H](C)[C@@H](O)[C@@H](O)[C@@H]3O)[C@@H](O)C=O)[C@H](O)CO)[C@@H]2O)O[C@H](CO)[C@@H](O[C@@H]2O[C@@H](C)[C@@H](O)[C@@H](O)[C@@H]2O)[C@@H]1O[C@@H]1O[C@H](CO)[C@H](O)[C@H](O)[C@H]1O [LNDFH-II, lacto-N-difucohexaose II]",–,–,–,–,–,0%,0%,0%
lacto-N-fucopentaose V [LNFP-V],–,–,–,–,–,65.1%,30.8%,8.1%
lacto-N-neohexaose [LNnH],45%,132%,0.05%,–,–,–,–,–
lacto-N-fucopentaose III [LNFP-III],–,–,–,–,–,4.7%,0%,7.4%
"CC(=O)N[C@H]1[C@H](O[C@H]2[C@@H](O)[C@@H](CO)O[C@@H](O[C@@H]([C@H](O)[C@@H](O)C=O)[C@H](O)CO)[C@@H]2O)O[C@H](CO)[C@@H](O[C@@H]2O[C@@H](C)[C@@H](O)[C@@H](O)[C@@H]2O)[C@@H]1O[C@@H]1O[C@H](CO)[C@H](O)[C@H](O)[C@H]1O [LNFP-II, lacto-N-fucopentaose II]",–,–,–,–,–,0%,0%,0%
